# Patent US12162872B2, “Cycloalkylurea derivative” (Sumitomo Pharma Co., Ltd., priority 2019, dated 2024)
# Target: T1, Human orexin receptor type 2 (Homo sapiens, UniProt O43614)
# T1 construct: expressed in transfected cells; host or cells: CHO cells (transient expression)
# T1 sequence (O43614 1-444): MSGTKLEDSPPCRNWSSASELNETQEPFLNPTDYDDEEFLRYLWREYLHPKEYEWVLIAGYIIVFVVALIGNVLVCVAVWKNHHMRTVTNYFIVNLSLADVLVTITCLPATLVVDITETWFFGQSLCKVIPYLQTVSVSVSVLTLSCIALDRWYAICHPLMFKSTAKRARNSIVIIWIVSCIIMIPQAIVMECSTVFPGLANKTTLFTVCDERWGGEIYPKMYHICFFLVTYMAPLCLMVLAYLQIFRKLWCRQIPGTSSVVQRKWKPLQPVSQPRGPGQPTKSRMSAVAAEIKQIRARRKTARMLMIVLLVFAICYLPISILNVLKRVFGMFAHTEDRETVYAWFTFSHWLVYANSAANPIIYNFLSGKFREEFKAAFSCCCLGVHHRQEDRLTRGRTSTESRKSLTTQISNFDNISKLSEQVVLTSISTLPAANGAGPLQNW
# Test: Test 2: Evaluation of agonist activity for orexin receptor type 2 (aequorin luminescence, intracellular calcium mobilization in CHO cells)
# Type: cell-based
# Conditions: relative percentage of luminescence for the luminescence (100%) of Orexin A (100 pM); CHO cells transiently expressing human orexin receptor type 2 and apoaequorin; Orexin A Lot. 671009
# Description: Test 2: Evaluation of Agonist Activity for Orexin Receptor Type 2
# Human orexin receptor type 2 and apoaequorin were transiently expressed in CHO cells, and the agonist activity was evaluated based on intracellular calcium mobilization with ligand stimulation. The CHO cells transiently-expressed human orexin receptor type 2 and apoaequorin were seeded on a 384-well plate by 2,000 cells/well, and then incubated for 16-22 hours. After the plate was returned to room temperature, Coelenterazine hcp (final concentration: 1 μM) was added to the plate, and the plate was allowed to stand at room temperature for 2 hours. And then, Orexin A (PEPTIDE INSTITUTE, INC., Lot. 671009) or each test compound was added to the plate, and the luminescence of the cells was measured with FDSS7000 (Hamamatsu Photonics K.K.), wherein Orexin A and each test compound were dissolved in DMSO (final concentration: 0.1%), and diluted with a buffer (Hanks, 20 mM HEPES, 0.1% BSA). The agonist activity of each test compound for orexin receptor type 2 was calculated as relative percentage of luminescence for the luminescence (100%) of Orexin A (100 pM).
row,Structure (SMILES),agonist activity (%)
1,"CC(C)N1C[C@H]2CC[C@@H](C1)[C@H]2O[C@H]1CCCC(F)(F)[C@@H]1NC(=O)N1CCC(C)(c2noc([C@@H]3C[C@@H]3F)n2)CC1 [Example 100, N-[(1R,6S)-2,2-difluoro-6-{[(1R,5S,8R)-3-(propan-2-yl)-3-azabicyclo[3.2.1]octan-8-yl]oxy}cyclohexyl]-4-{5-[(1S,2S)-2-fluorocyclopropyl]-1,2,4-oxadiazol-3-yl}-4-methylpiperidine-1-carboxamide]",340%
2,"CC(C)OC1CCN([C@H]2CCCC(F)(F)[C@@H]2NC(=O)N2CCC(C)(c3noc([C@@H]4C[C@@H]4F)n3)CC2)CC1 [Example 101, N-[(1R,6S)-2,2-difluoro-6-{4-[(propan-2-yl)oxy]piperidin-1-yl}cyclohexyl]-4-{5-[(1S,2S)-2-fluorocyclopropyl]-1,2,4-oxadiazol-3-yl}-4-methylpiperidine-1-carboxamide]",326%
3,"CC(C)N1CC[C@H](O[C@H]2CCCC(F)(F)[C@@H]2NC(=O)N2CCC(C)(c3noc(C4CCC4)n3)CC2)C1 [Example 102, 4-(5-cyclobutyl-1,2,4-oxadiazol-3-yl)-N-[(1R,6S)-2,2-difluoro-6-{[(3S)-1-(propan-2-yl)pyrrolidin-3-yl]oxy}cyclohexyl]-4-methylpiperidine-1-carboxamide]",374%
4,"CCC1(c2noc([C@@H]3C[C@@H]3F)n2)CCN(C(=O)N[C@@H]2[C@@H](O[C@H]3CCN(C(C)C)C3)CCCC2(F)F)CC1 [Example 103, N-[(1R,6S)-2,2-difluoro-6-{[(3S)-1-(propan-2-yl)pyrrolidin-3-yl]oxy}cyclohexyl]-4-ethyl-4-{5-[(1S,2S)-2-fluorocyclopropyl]-1,2,4-oxadiazol-3-yl}piperidine-1-carboxamide]",369%
5,"CC(C)N1C[C@H]2CC[C@@H](C1)[C@@H]2O[C@H]1CCCC(F)(F)[C@@H]1NC(=O)N1CCC(C)(c2noc([C@@H]3C[C@@H]3F)n2)CC1 [Example 104, N-[(1R,6S)-2,2-difluoro-6-{[(1R,5S,8S)-3-(propan-2-yl)-3-azabicyclo[3.2.1]octan-8-yl]oxy}cyclohexyl]-4-{5-[(1S,2S)-2-fluorocyclopropyl]-1,2,4-oxadiazol-3-yl}-4-methylpiperidine-1-carboxamide]",289%
6,"CC(C)N1[C@@H]2CC[C@H]1C[C@@H](O[C@H]1CCCC(F)(F)[C@@H]1NC(=O)N1CCC(C)(c3noc([C@@H]4C[C@@H]4F)n3)CC1)C2 [Example 105, N-[(1R,6S)-2,2-difluoro-6-{[(1R,3R,5S)-8-(propan-2-yl)-8-azabicyclo[3.2.1]octan-3-yl]oxy}cyclohexyl]-4-{5-[(1S,2S)-2-fluorocyclopropyl]-1,2,4-oxadiazol-3-yl}-4-methylpiperidine-1-carboxamide]",359%
7,"CC(C)N1C[C@@H]2[C@H](C1)[C@H]2O[C@H]1CCCC(F)(F)[C@@H]1NC(=O)N1CCC(C)(c2noc([C@@H]3C[C@@H]3F)n2)CC1 [Example 106, N-[(1R,6S)-2,2-difluoro-6-{[(1R,5S,6S)-3-(propan-2-yl)-3-azabicyclo[3.1.0]hexan-6-yl]oxy}cyclohexyl]-4-{5-[(1S,2S)-2-fluorocyclopropyl]-1,2,4-oxadiazol-3-yl}-4-methylpiperidine-1-carboxamide]",220%
8,"CC(C)CN1CC[C@H](O[C@H]2CCCC(F)(F)[C@@H]2NC(=O)N2CCC(C)(c3noc([C@@H]4C[C@@H]4F)n3)CC2)C1 [Example 107, N-[(1R,6S)-2,2-difluoro-6-{[(3S)-1-(2-methylpropyl)pyrrolidin-3-yl]oxy}cyclohexyl]-4-{5-[(1S,2S)-2-fluorocyclopropyl]-1,2,4-oxadiazol-3-yl}-4-methylpiperidine-1-carboxamide]",363%
9,"CO[C@@H]1CN(C(C)C)C[C@H]1O[C@H]1CCCC(F)(F)[C@@H]1NC(=O)N1CCC(C)(c2noc([C@@H]3C[C@@H]3F)n2)CC1 [Example 108, N-[(1R,6S)-2,2-difluoro-6-{[(3R,4R)-4-methoxy-1-(propan-2-yl)pyrrolidin-3-yl]oxy}cyclohexyl]-4-{5-[(1S,2S)-2-fluorocyclopropyl]-1,2,4-oxadiazol-3-yl}-4-methylpiperidine-1-carboxamide]",292%
10,"CC(C)N1CCC(C)(O[C@H]2CCCC(F)(F)[C@@H]2NC(=O)N2CCC(C)(c3noc([C@@H]4C[C@@H]4F)n3)CC2)CC1 [Example 109, N-[(1R,6S)-2,2-difluoro-6-{[4-methyl-1-(propan-2-yl)piperidin-4-yl]oxy}cyclohexyl]-4-{5-[(1S,2S)-2-fluorocyclopropyl]-1,2,4-oxadiazol-3-yl}-4-methylpiperidine-1-carboxamide]",359%
11,"CC(C)N1CCN([C@H]2CCCC(F)(F)[C@@H]2NC(=O)N2CCC(C)(c3noc([C@@H]4C[C@@H]4F)n3)CC2)[C@@H](C)C1 [Example 110, N-{(1R,6S)-2,2-difluoro-6-[(2S)-2-methyl-4-(propan-2-yl)piperazin-1-yl]cyclohexyl}-4-{5-[(1S,2S)-2-fluorocyclopropyl]-1,2,4-oxadiazol-3-yl}-4-methylpiperidine-1-carboxamide]",380%
12,"CC(C)N1CCN([C@H]2CCCC(F)(F)[C@@H]2NC(=O)N2CCC(C)(c3noc([C@@H]4C[C@@H]4F)n3)CC2)[C@H](C)C1 [Example 111, N-{(1R,6S)-2,2-difluoro-6-[(2R)-2-methyl-4-(propan-2-yl)piperazin-1-yl]cyclohexyl}-4-{5-[(1S,2S)-2-fluorocyclopropyl]-1,2,4-oxadiazol-3-yl}-4-methylpiperidine-1-carboxamide]",382%

# More lines, now with the values ahead:
row,agonist activity (%),Structure (SMILES)
1,376%,"CC(C)N(C)[C@@H]1CCN([C@H]2CCCC(F)(F)[C@@H]2NC(=O)N2CCC(C)(c3noc([C@@H]4C[C@@H]4F)n3)CC2)C1 [Example 112, N-[(1R,6S)-2,2-difluoro-6-{(3R)-3-[methyl(propan-2-yl)amino]pyrrolidin-1-yl}cyclohexyl]-4-{5-[(1S,2S)-2-fluorocyclopropyl]-1,2,4-oxadiazol-3-yl}-4-methylpiperidine-1-carboxamide]"
2,374%,"CC(C)N1CC[C@@H](N(C)[C@H]2CCCC(F)(F)[C@@H]2NC(=O)N2CCC(C)(c3noc([C@@H]4C[C@@H]4F)n3)CC2)C1 [Example 113, N-[(1R,6S)-2,2-difluoro-6-{methyl[(3R)-1-(propan-2-yl)pyrrolidin-3-yl]amino}cyclohexyl]-4-{5-[(1S,2S)-2-fluorocyclopropyl]-1,2,4-oxadiazol-3-yl}-4-methylpiperidine-1-carboxamide]"
3,438%,"CC(C)N(C)C1CCN([C@H]2CCCC(F)(F)[C@@H]2NC(=O)N2CCC(C)(c3noc([C@@H]4C[C@@H]4F)n3)CC2)CC1 [Example 114, N-[(1R,6S)-2,2-difluoro-6-{4-[methyl(propan-2-yl)amino]piperidin-1-yl}cyclohexyl]-4-{5-[(1S,2S)-2-fluorocyclopropyl]-1,2,4-oxadiazol-3-yl}-4-methylpiperidine-1-carboxamide]"
4,403%,"CN(C1CC1)[C@H]1CCN([C@H]2CCCC(F)(F)[C@@H]2NC(=O)N2CCC(C)(c3noc([C@@H]4C[C@@H]4F)n3)CC2)C1 [Example 115, N-[(1R,6S)-6-{(3S)-3-[cyclopropyl(methyl)amino]pyrrolidin-1-yl}-2,2-difluorocyclohexyl]-4-{5-[(1S,2S)-2-fluorocyclopropyl]-1,2,4-oxadiazol-3-yl}-4-methylpiperidine-1-carboxamide]"
5,488%,"CC(C)CN1CC[C@H](O[C@H]2CCCC(F)(F)[C@@H]2NC(=O)N2CCC(C)(c3noc(C4CC4)n3)CC2)C1 [Example 116, 4-(5-cyclopropyl-1,2,4-oxadiazol-3-yl)-N-[(1R,6S)-2,2-difluoro-6-{[(3S)-1-(2-methylpropyl)pyrrolidin-3-yl]oxy}cyclohexyl]-4-methylpiperidine-1-carboxamide]"
6,465%,"CC(C)N1CCN(C[C@H]2CCCC(F)(F)[C@@H]2NC(=O)N2CCC(C)(c3noc([C@@H]4C[C@@H]4F)n3)CC2)CC1 [Example 117, N-[(1R,6R)-2,2-difluoro-6-{[4-(propan-2-yl)piperazin-1-yl]methyl}cyclohexyl]-4-{5-[(1S,2S)-2-fluorocyclopropyl]-1,2,4-oxadiazol-3-yl}-4-methylpiperidine-1-carboxamide]"
7,524%,"CC1(c2noc([C@@H]3C[C@@H]3F)n2)CCN(C(=O)N[C@@H]2[C@@H](O[C@H]3CCN(CC4CC4)C3)CCCC2(F)F)CC1 [Example 118, N-[(1R,6S)-6-{[(3S)-1-(cyclopropylmethyl)pyrrolidin-3-yl]oxy}-2,2-difluorocyclohexyl]-4-{5-[(1S,2S)-2-fluorocyclopropyl]-1,2,4-oxadiazol-3-yl}-4-methylpiperidine-1-carboxamide]"
